Experimental data: patent US11932658B2 (BRISTOL-MYERS SQUIBB COMPANY, priority 2016, dated 2024)

Target: T1, PAR4 (Homo sapiens, UniProt Q96RI0)
T1 construct: expressed in transfected cells; host or cells: HEK293 PAR4 Clone 1.2A (BMS Arctic ID 383940)
T1 sequence (Q96RI0 18-385): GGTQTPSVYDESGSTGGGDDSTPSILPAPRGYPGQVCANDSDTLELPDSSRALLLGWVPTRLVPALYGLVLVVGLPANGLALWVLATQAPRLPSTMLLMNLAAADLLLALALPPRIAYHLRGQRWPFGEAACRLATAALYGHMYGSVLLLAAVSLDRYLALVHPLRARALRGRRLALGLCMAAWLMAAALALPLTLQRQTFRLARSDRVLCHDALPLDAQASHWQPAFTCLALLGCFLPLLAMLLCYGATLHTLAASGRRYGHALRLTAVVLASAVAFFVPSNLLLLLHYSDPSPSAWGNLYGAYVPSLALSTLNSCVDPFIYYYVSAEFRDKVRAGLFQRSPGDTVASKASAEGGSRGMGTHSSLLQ
Assay: PAR4 FLIPR assay (antagonism of agonist peptide-induced calcium mobilization)
Type: cell-based
Excerpt: The FLIPR assay is an exemplary in vitro assay for measuring the activity of the PAR4 antagonists of the present invention. In this assay, intracellular calcium mobilization is induced in PAR4 expressing cells by a PAR4 agonist and calcium mobilization is monitored.
HEK293 cells stably expressing PAR4 were generated by a standard method of transfection of human PAR4 (F2R23) cDNA expression vector and selected based on PAR4 protein expression or mRNA expression. […] These cells also express endogenous PAR1 and can elicit calcium signal upon stimulation with PAR1 agonist peptide. Therefore, the same cells were also used to determine selectivity against PAR1 and agonist activity for both receptors. Cells from HEK293 PAR4 Clone 1.2A (BMS Arctic ID 383940) were propagated and used for calcium mobilization studies.
FLIPR-based calcium mobilization assay in HEK293 cells was used to measure PAR4 antagonism, agonism, and selectivity against PAR1. The activity of the PAR4 antagonists of the present invention were tested in PAR4 expressing cells by monitoring H-Ala-Phe(4-F)-Pro-Gly-Trp-Leu-Val-Lys-Asn-Gy-NH2-induced intracellular calcium mobilization. Counter screens for agonist activity and PAR1 antagonist activity were also performed. Briefly, PAR1/PAR4-expressing HEK293 cells were grown in DMEM (Life Technology, Grand Island, NY) containing 10% heat-inactivated FBS, 1% Penicillin-Streptomycin, 10 μg/mL blasticidin, and 100 μg/mL Zeocin at 37° C. with 5% CO2. Cells were plated overnight prior to the experiment in a black 384-well Purecoat Amine clear bottom plate (Becton Dickinson Biosciences, San Jose, CA) at 10,000 cells/well in 30 μL growth medium and incubated in a humidified chamber at 37° C. with 5% CO2 overnight. Prior to compound addition, the cell medium was replaced with 40 μL of 1× calcium and magnesium-containing Hank's Balanced Saline Solution (HBSS) (with 20 mM HEPES) and 1:1000 diluted fluorescent calcium indicator (Codex Biosolutions, Gaithersburg, MD). After a 30 minute incubation period at 37° C. and a further 30 minute incubation and equilibration period at room temperature, 20 μL test compound (diluted in 1×HBSS buffer) was added at various concentrations at 0.17% dimethyl sulfoxide (DMSO) final concentration. Changes in fluorescence intensity were measured using a Functional Drug Screening System (FDSS, Hamamatsu, Japan) to determine agonist activities. The cells were then incubated for 30 minutes at room temperature followed by addition of 20 μL of agonist peptide for antagonist activity measurement. […] Compound potency was derived from 11-point concentration-response curves.

IC50 [nM] | SMILES
33 | COc1cnc2c(-c3nc4c(C)cc5c(c4s3)OC[C@H](COC(=O)Nc3ccnc(C)c3)O5)cc(C(F)F)cc2n1 [Example 84, (R)-(2-(7-(difluoromethyl)-2-methoxyquinoxalin-5-yl)-4-methyl-7,8-dihydro-[1,4]dioxino[2′,3′:3,4]benzo[1,2-d]thiazol-7-yl)methyl (2-methylpyridin-4-yl)carbamate]
480 | COc1cnc2c(-c3nc4c(Cl)cc5c(c4s3)OC[C@H](COC(=O)Nc3cncc(F)c3)O5)cc(C)cc2n1 [Example 28, (R)-(4-chloro-2-(2-methoxy-7-methylquinoxalin-5-yl)-7,8-dihydro-[1,4]dioxino[2′,3′:3,4]benzo[1,2-d]thiazol-7-yl)methyl (5-fluoropyridin-3-yl)carbamate]
1 | COc1cnc2c(-c3nc4cc(F)c5c(c4s3)C[C@](C)(COC(=O)Nc3cnc(OCCO)nc3)O5)cc(Cl)cc2c1 [Example 286, (R)-(2-(6-chloro-3-methoxyquinolin-8-yl)-5-fluoro-7-methyl-7,8-dihydrobenzofuro[5,4-d]thiazol-7-yl)methyl (2-(2-hydroxyethoxy)pyrimidin-5-yl)carbamate]
2.7 | COc1cnc2c(-c3nc4cc(F)c5c(c4s3)[C@H](C)[C@@H](CO)O5)cc(Cl)cc2n1 [Example 253, ((7S,8S)-2-(7-chloro-2-methoxyquinoxalin-5-yl)-5-fluoro-8-methyl-7,8-dihydrobenzofuro [5,4-d]thiazol-7-yl)methanol]
1.7 | COc1cnc2c(-c3nc4c(Cl)cc5c(c4s3)OC[C@H](COC(=O)Nc3ccc(-n4cnc(C)n4)nc3)O5)cc(C)cc2n1 [Example 69, (R)-(4-chloro-2-(2-methoxy-7-methylquinoxalin-5-yl)-7,8-dihydro-[1,4]dioxino[2′,3′:3,4]benzo[1,2-d]thiazol-7-yl)methyl (6-(3-methyl-1H-1,2,4-triazol-1-yl)pyridin-3-yl) carbamate]
50 | COc1cnc2c(-c3nc4cc(F)c5c(c4s3)C[C@@H](CNC(=O)NC3CC3)O5)cc(C)cc2n1 [Example 257, (S)-1-cyclopropyl-3-((5-fluoro-2-(2-methoxy-7-methylquinoxalin-5-yl)-7,8-dihydrobenzofuro[5,4-d]thiazol-7-yl)methyl)urea]
71 | COc1cnc2c(-c3nc4cc(F)c5c(c4s3)[C@H](C)[C@H](CO)O5)cc(C)cc2n1 (relative stereo) [Example 199]
1 | COc1cnc2c(-c3nc4c(C)cc5c(c4s3)OC[C@H](COC(=O)Nc3ccc(C)nc3)O5)cc(C)cc2n1 [Example 56, (R)-(2-(2-methoxy-7-methylquinoxalin-5-yl)-4-methyl-7,8-dihydro-[1,4]dioxino[2′,3′:3,4]benzo[1,2-d]thiazol-7-yl)methyl (6-methylpyridin-3-yl)carbamate]
1.2 | COc1cnc2c(-c3nc4c(C)cc5c(c4s3)OC[C@H](COC(=O)Nc3ccc(Cl)nc3)O5)cc(C)cc2n1 [Example 47, (R)-(2-(2-methoxy-7-methylquinoxalin-5-yl)-4-methyl-7,8-dihydro-[1,4]dioxino[2′,3′:3,4]benzo[1,2-d]thiazol-7-yl)methyl (6-chloropyridin-3-yl)carbamate]
16 | COc1cnc2c(-c3nc4c(Cl)cc5c(c4s3)OC[C@H](COC(=O)Nc3ccc(N(C)C)nc3)O5)cc(C)cc2n1 [Example 65, (R)-(4-chloro-2-(2-methoxy-7-methylquinoxalin-5-yl)-7,8-dihydro-[1,4]dioxino [2′,3′:3,4]benzo[1,2-d]thiazol-7-yl)methyl (6-(dimethylamino)pyridin-3-yl)carbamate]
9 | COc1cnc2c(-c3nc4ccc5c(c4s3)OC[C@H](COC(=O)Nc3cnc(C)nc3)O5)cc(F)cc2c1 [Example 281, (R)-(2-(6-fluoro-3-methoxyquinolin-8-yl)-7,8-dihydro-[1,4]dioxino[2′,3′:3,4]benzo[1,2-d]thiazol-7-yl)methyl (2-methylpyrimidin-5-yl)carbamate]
1.1 | COc1cnc2c(-c3nc4c(C)cc5c(c4s3)OC[C@H](COC(=O)Nc3ccc(C)nc3)O5)cc(C#N)cc2n1 [Example 91, (R)-(2-(7-cyano-2-methoxyquinoxalin-5-yl)-4-methyl-7,8-dihydro-[1,4]dioxino[2′,3′:3,4]benzo[1,2-d]thiazol-7-yl)methyl (6-methylpyridin-3-yl)carbamate]
1 | COc1cnc2c(-c3nc4ccc5c(c4s3)OC[C@H](COC(=O)Nc3ccc(C(=O)N4CCOCC4)cc3)O5)cc(C)cc2n1 [Example 114, (R)-(2-(2-methoxy-7-methylquinoxalin-5-yl)-7,8-dihydro-[1,4]dioxino[2′,3′:3,4]benzo [1,2-d]thiazol-7-yl)methyl (4-(morpholine-4-carbonyl)phenyl)carbamate]
7.9 | COc1cncc(NC(=O)OC[C@H]2COc3c(cc(C)c4nc(-c5cc(C)cc6nc(OC)cnc56)sc34)O2)c1 [Example 43, (R)-(2-(2-methoxy-7-methylquinoxalin-5-yl)-4-methyl-7,8-dihydro-[1,4]dioxino[2′,3′:3,4]benzo[1,2-d]thiazol-7-yl)methyl (5-methoxypyridin-3-yl)carbamate]
2.2 | COc1cnc2c(-c3nc4cc(F)c5c(c4s3)C[C@H](COC(=O)Nc3cccnc3)O5)cc(Cl)cc2c1 [Example 283, (R)-(2-(6-chloro-3-methoxyquinolin-8-yl)-5-fluoro-7,8-dihydrobenzofuro[5,4-d]thiazol-7-yl)methyl pyridin-3-ylcarbamate]
5.3 | COc1cnc2c(-c3nc4ccc5c(c4s3)CC(CNC(=O)OCc3ccccc3)O5)cc(C)cc2n1 (centres unmarked) [Example 193, Benzyl ((2-(2-methoxy-7-methylquinoxalin-5-yl)-7,8-dihydrobenzofuro[5,4-d]thiazol-7-yl)methyl)carbamate]
1.8 | COc1cnc2c(-c3nc4c(C)cc5c(c4s3)OC[C@H](COC(=O)Nc3ccc(C)nc3)O5)cc(CO)cc2n1 [Example 100, (R)-(2-(7-(hydroxymethyl)-2-methoxyquinoxalin-5-yl)-4-methyl-7,8-dihydro-[1,4]dioxino[2′,3′:3,4]benzo[1,2-d]thiazol-7-yl)methyl (6-methylpyridin-3-yl)carbamate]
2.8 | COc1cnc2c(-c3nc4cc(F)c5c(c4s3)C[C@H](COC(=O)Nc3cccc(C(N)=O)c3)O5)cc(Cl)cc2c1 [Example 284, (R)-(2-(6-chloro-3-methoxyquinolin-8-yl)-5-fluoro-7,8-dihydrobenzofuro[5,4-d]thiazol-7-yl)methyl (3-carbamoylphenyl)carbamate]
8.6 | COc1cnc2c(-c3nc4cc(F)c5c(c4s3)C[C@@](C)(CNC(=O)OCC(C)C)O5)cc(C)cc2n1 [Example 241, (S)-isobutyl ((5-fluoro-2-(2-methoxy-7-methylquinoxalin-5-yl)-7-methyl-7,8-dihydrobenzofuro[5,4-d]thiazol-7-yl)methyl)carbamate]
0.9 | COc1cnc2c(-c3nc4c(C)cc5c(c4s3)OCC(COC(=O)Nc3ccc(C)nc3)O5)cc(C)cc2n1 (centres unmarked) [Example 120, (2-(2-methoxy-7-methylquinoxalin-5-yl)-4-methyl-7,8-dihydro-[1,4]dioxino[2′,3′:3,4]benzo[1,2-d]thiazol-7-yl)methyl (6-methylpyridin-3-yl)carbamate]
